Source: patent US20190117620A1, “CHEMOTHERAPY IMPROVEMENTS” (NOXOPHARM LIMITED, priority 2016, published 2019)

Key:
[1] = test system: castrate-resistant metastatic prostate cancer; conditions: docetaxel alone, standard course; response = complete remission, partial remission or no disease progression; cited from earlier work
[2] = test system: castrate-resistant metastatic prostate cancer; experiment: Example 3: docetaxel course, with or without rectal dehydroequol as adjuvant, in castrate-resistant metastatic prostate cancer; assay type: in vivo, human; conditions: stated objective; dehydroequol 400 mg once daily rectally for 7 days as adjuvant to docetaxel 175 mg/m2 iv every 21 days
Method: A patient with castrate-resistant metastatic prostate cancer with secondary cancers in several inguinal lymph nodes and multiple bones (thoracic vertebrae, femur, ribs, humerus). Having progressed on hormone-ablation therapy, the standard next step for this patient is to receive a course of treatment with docetaxel involving an intravenous injection of a dosage of […] over 3 hours every 21 days for 18 weeks.
Dehydroequol is administered as adjuvant therapy at a dosage of 400 mg once daily for 7 consecutive days commencing on the day prior to the administration of docetaxel and repeated for the duration of the course of docetaxel therapy. The dehydroequol is administered rectally in a solid 2 gram suppository dosage form in a theobroma oil base.

[3] = test system: late-stage ovarian cancer; experiment: Example 2: rectal dehydroequol with intravenous carboplatin in a patient with platin- and taxane-refractory late-stage ovarian cancer; assay type: in vivo, human; conditions: stated objective; dehydroequol 400 mg every 12 hours rectally for 7 days + carboplatin AUC 6 iv on Day 2, every 28 days, 6 courses
Text: A patient with late-stage ovarian cancer. Previously treated intravenously with multiple rounds of carboplatin and paclitaxel and now displaying multi-drug resistance by showing disease progression while undergoing combined therapy with carboplatin/paclitaxel. This patient meets the definition of platin- and taxane-refractory disease.
The patient is showing multiple tumours throughout the abdominal cavity and is suffering failing health although still considered sufficiently robust to withstand further cytotoxic chemotherapy were it considered likely to provide a benefit.
The patient is treated with 400 mg of dehydroequol every 12 hours for 7 consecutive days. The dehydroequol is administered rectally in a solid 2 gram suppository dosage form in a theobroma oil base.
Carboplatin is injected intravenously at a dosage equivalent to an AUC of 6 on Day 2 of the 7-day dehydroequol treatment regimen.
This regimen is repeated every 28 days for a total of 6 courses of treatment.

Structure (SMILES)	response rate (reported) [1] [%]	response rate (objective) [2]	prolong the survival of the patient (additional) [3] [months]
CC(=O)O[C@@]12CO[C@@H]1C[C@H](O)[C@@]1(C)C(=O)[C@H](O)C3=C(C)[C@@H](OC(=O)[C@H](O)[C@@H](NC(=O)OC(C)(C)C)c4ccccc4)C[C@@](O)([C@@H](OC(=O)c4ccccc4)[C@H]21)C3(C)C [docetaxel]	30		
Oc1ccc(C2=Cc3ccc(O)cc3OC2)cc1 [dehydroequol, 2H-1-Benzopyran-7-0,1,3-(4-hydroxyphenyl)]		40-100%	12
